Source: article PMC7791547, “Biochemical characterization of an E. coli cell division factor FtsE shows ATPase cycles similar to the NBDs of ABC-transporters” (Bioscience Reports, 2021)

Key:
[1] = biological target: T1, FtsE (FtsEEc) (Escherichia coli, UniProt P0A9R7, K41A); test: MANT-ATP fluorescence binding; conditions: labelled compound; 25 mM HEPES pH 7.5, 50 mM KCl, 10 mM MgCl2; Walker A mutant
T1 construct: ftsE ORF in His-pBAD18; His-tagged, soluble, expressed in E. coli C41; Ni-NTA and two SEC rounds
T1 sequence (P0A9R7 whole entry K41A): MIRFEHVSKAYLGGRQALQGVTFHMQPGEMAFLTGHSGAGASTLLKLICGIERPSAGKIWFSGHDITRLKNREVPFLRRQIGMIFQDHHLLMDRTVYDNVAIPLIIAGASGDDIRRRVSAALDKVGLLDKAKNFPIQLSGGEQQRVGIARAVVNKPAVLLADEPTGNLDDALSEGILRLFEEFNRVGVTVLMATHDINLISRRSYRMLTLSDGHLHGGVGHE

[2] = biological target: T2, FtsE (FtsEEc) (Escherichia coli, UniProt P0A9R7); test: fluorescence titration, double reciprocal plot; type: binding
T2 construct: ftsE ORF in His-pBAD18; His-tagged, soluble, expressed in E. coli C41; Ni-NTA and two SEC rounds
T2 sequence (P0A9R7 1-222): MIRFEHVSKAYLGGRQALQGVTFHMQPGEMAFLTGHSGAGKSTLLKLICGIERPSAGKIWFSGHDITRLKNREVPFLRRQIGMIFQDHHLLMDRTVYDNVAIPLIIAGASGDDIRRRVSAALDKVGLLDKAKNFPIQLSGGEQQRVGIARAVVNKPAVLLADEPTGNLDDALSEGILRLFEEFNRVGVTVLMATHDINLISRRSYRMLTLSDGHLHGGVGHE

`CNc1ccccc1C(=O)O[C@H]1[C@@H](O)[C@H](n2cnc3c(N)ncnc32)O[C@@H]1COP(=O)(O)OP(=O)(O)OP(=O)(O)O` [MANT-ATP] was tested. Which MANT-ATP fluorescence binding [1] did it give?
The MANT-ATP fluorescence binding was “ATP binding affinity for FtsE^K41A, and it was found to be much lower than wildtype”.

What about the Kd [2] of the same compound?
Its Kd is 21.5 ± 2.2 nM.
